{
  "source": "PubChem BioAssay (NCI)",
  "assay_in_all_cases": "DTP human tumour cell line panel, 48 h",
  "key": {"HCT-15 colon": {"tested_on": "HCT-15 colon"}, "CAKI-1 renal": {"tested_on": "CAKI-1 renal"}, "SF-268 CNS": {"tested_on": "SF-268 CNS"}, "LOX IMVI melanoma": {"tested_on": "LOX IMVI melanoma"}, "PC-3 prostate": {"tested_on": "PC-3 prostate"}, "MDA-MB-231 breast": {"tested_on": "MDA-MB-231 breast"}, "NCI-H23 lung": {"tested_on": "NCI-H23 lung"}, "SNB-75 CNS": {"tested_on": "SNB-75 CNS"}, "COLO 205 colon": {"tested_on": "COLO 205 colon"}, "A498 renal": {"tested_on": "A498 renal"}, "DU-145 prostate": {"tested_on": "DU-145 prostate"}, "HL-60(TB) leukemia": {"tested_on": "HL-60(TB) leukemia"}, "CCRF-CEM leukemia": {"tested_on": "CCRF-CEM leukemia"}, "MDA-N": {"tested_on": "MDA-N"}, "OVCAR-3 ovarian": {"tested_on": "OVCAR-3 ovarian"}, "U251 CNS": {"tested_on": "U251 CNS"}, "IGROV1 ovarian": {"tested_on": "IGROV1 ovarian"}, "BT-549 breast": {"tested_on": "BT-549 breast"}, "SF-295 CNS": {"tested_on": "SF-295 CNS"}, "NCI-H522 lung": {"tested_on": "NCI-H522 lung"}, "786-0 renal": {"tested_on": "786-0 renal"}, "SK-MEL-28 melanoma": {"tested_on": "SK-MEL-28 melanoma"}, "KM12 colon": {"tested_on": "KM12 colon"}, "RPMI-8226 leukemia": {"tested_on": "RPMI-8226 leukemia"}, "HT29 colon": {"tested_on": "HT29 colon"}, "HCT-116 colon": {"tested_on": "HCT-116 colon"}, "RXF 393 renal": {"tested_on": "RXF 393 renal"}, "UACC-62 melanoma": {"tested_on": "UACC-62 melanoma"}, "HOP-62 NSCLC": {"tested_on": "HOP-62 NSCLC"}, "ACHN renal": {"tested_on": "ACHN renal"}},
  "note": "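A five-concentration, 48-hour dose response in 96-well plates underlies each endpoint, interpolated linearly between surrounding concentrations. GI50 is the concentration that inhibits growth by half. At the TGI there is no net growth.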",
  "data": [
    {"compound": "CC(C)=CCc1c(O)cc(/C=C/c2cc(O)c3c(c2)C[C@@H]2C(C)(C)[C@H](O)[C@H](O)C[C@@]2(C)O3)cc1O", "values": [
      {"measurement": "GI50", "setting": "HCT-15 colon", "result": 1280, "unit": "nM"},
      {"measurement": "TGI", "setting": "HCT-15 colon", "result": "> 10000", "unit": "nM"},
      {"measurement": "GI50", "setting": "CAKI-1 renal", "result": 2.67, "unit": "nM"},
      {"measurement": "TGI", "setting": "CAKI-1 renal", "result": "> 5600", "unit": "nM"},
      {"measurement": "GI50", "setting": "SF-268 CNS", "result": 1110, "unit": "nM"},
      {"measurement": "TGI", "setting": "SF-268 CNS", "result": "> 7760", "unit": "nM"},
      {"measurement": "GI50", "setting": "LOX IMVI melanoma", "result": 2.1, "unit": "nM"},
      {"measurement": "TGI", "setting": "LOX IMVI melanoma", "result": 3020, "unit": "nM"},
      {"measurement": "GI50", "setting": "PC-3 prostate", "result": 345, "unit": "nM"},
      {"measurement": "TGI", "setting": "PC-3 prostate", "result": "> 10000", "unit": "nM"},
      {"measurement": "GI50", "setting": "MDA-MB-231 breast", "result": 1660, "unit": "nM"},
      {"measurement": "TGI", "setting": "MDA-MB-231 breast", "result": "> 10000", "unit": "nM"},
      {"measurement": "GI50", "setting": "NCI-H23 lung", "result": 1510, "unit": "nM"},
      {"measurement": "TGI", "setting": "NCI-H23 lung", "result": 7680, "unit": "nM"},
      {"measurement": "GI50", "setting": "SNB-75 CNS", "result": "< 1", "unit": "nM"},
      {"measurement": "TGI", "setting": "SNB-75 CNS", "result": 958, "unit": "nM"},
      {"measurement": "GI50", "setting": "COLO 205 colon", "result": 1370, "unit": "nM"},
      {"measurement": "TGI", "setting": "COLO 205 colon", "result": 3820, "unit": "nM"},
      {"measurement": "GI50", "setting": "A498 renal", "result": 1220, "unit": "nM"},
      {"measurement": "TGI", "setting": "A498 renal", "result": 9570, "unit": "nM"},
      {"measurement": "GI50", "setting": "DU-145 prostate", "result": 1960, "unit": "nM"},
      {"measurement": "TGI", "setting": "DU-145 prostate", "result": "> 10000", "unit": "nM"},
      {"measurement": "GI50", "setting": "HL-60(TB) leukemia", "result": "< 1", "unit": "nM"},
      {"measurement": "TGI", "setting": "HL-60(TB) leukemia", "result": 3050, "unit": "nM"},
      {"measurement": "GI50", "setting": "CCRF-CEM leukemia", "result": "< 1", "unit": "nM"},
      {"measurement": "TGI", "setting": "CCRF-CEM leukemia", "result": 2000, "unit": "nM"},
      {"measurement": "GI50", "setting": "MDA-N", "result": 1270, "unit": "nM"},
      {"measurement": "TGI", "setting": "MDA-N", "result": "> 10000", "unit": "nM"},
      {"measurement": "GI50", "setting": "OVCAR-3 ovarian", "result": 1500, "unit": "nM"},
      {"measurement": "TGI", "setting": "OVCAR-3 ovarian", "result": 5110, "unit": "nM"},
      {"measurement": "GI50", "setting": "U251 CNS", "result": 53.3, "unit": "nM"},
      {"measurement": "TGI", "setting": "U251 CNS", "result": "> 5280", "unit": "nM"},
      {"measurement": "GI50", "setting": "IGROV1 ovarian", "result": 1250, "unit": "nM"},
      {"measurement": "TGI", "setting": "IGROV1 ovarian", "result": "> 10000", "unit": "nM"},
      {"measurement": "GI50", "setting": "BT-549 breast", "result": 55.3, "unit": "nM"},
      {"measurement": "TGI", "setting": "BT-549 breast", "result": "> 7230", "unit": "nM"},
      {"measurement": "GI50", "setting": "SF-295 CNS", "result": "< 1", "unit": "nM"},
      {"measurement": "TGI", "setting": "SF-295 CNS", "result": 1.18, "unit": "nM"},
      {"measurement": "GI50", "setting": "NCI-H522 lung", "result": 363, "unit": "nM"},
      {"measurement": "TGI", "setting": "NCI-H522 lung", "result": 2860, "unit": "nM"},
      {"measurement": "GI50", "setting": "786-0 renal", "result": "< 1", "unit": "nM"},
      {"measurement": "TGI", "setting": "786-0 renal", "result": "> 6260", "unit": "nM"},
      {"measurement": "GI50", "setting": "SK-MEL-28 melanoma", "result": 1580, "unit": "nM"},
      {"measurement": "TGI", "setting": "SK-MEL-28 melanoma", "result": "> 5260", "unit": "nM"},
      {"measurement": "GI50", "setting": "KM12 colon", "result": 590, "unit": "nM"},
      {"measurement": "TGI", "setting": "KM12 colon", "result": 4110, "unit": "nM"},
      {"measurement": "GI50", "setting": "RPMI-8226 leukemia", "result": "< 1", "unit": "nM"},
      {"measurement": "GI50", "setting": "HT29 colon", "result": 373, "unit": "nM"},
      {"measurement": "TGI", "setting": "HT29 colon", "result": 3540, "unit": "nM"},
      {"measurement": "GI50", "setting": "HCT-116 colon", "result": 5.19, "unit": "nM"},
      {"measurement": "TGI", "setting": "HCT-116 colon", "result": "> 10000", "unit": "nM"},
      {"measurement": "GI50", "setting": "RXF 393 renal", "result": "< 1", "unit": "nM"},
      {"measurement": "GI50", "setting": "UACC-62 melanoma", "result": 46.2, "unit": "nM"},
      {"measurement": "TGI", "setting": "UACC-62 melanoma", "result": 325, "unit": "nM"},
      {"measurement": "GI50", "setting": "HOP-62 NSCLC", "result": 1380, "unit": "nM"},
      {"measurement": "TGI", "setting": "HOP-62 NSCLC", "result": "> 7950", "unit": "nM"},
      {"measurement": "GI50", "setting": "ACHN renal", "result": 526, "unit": "nM"}
    ]}
  ]
}
